Assays:
Carbonic anhydrase 1 = Carbonic anhydrase 1 (Homo sapiens, UniProt P00915); test: Inhibition of recombinant human carbonic anhydrase 1 incubated for 15 mins prior to testing by phenol red based stopped-flow CO2 hydration assay
Carbonic anhydrase 2 = Carbonic anhydrase 2 (Homo sapiens, UniProt P00918); test: Inhibition of recombinant human carbonic anhydrase 2 incubated for 15 mins prior to testing by phenol red based stopped-flow CO2 hydration assay
[1] = molecular target: T1, Vascular endothelial growth factor receptor 2 (Homo sapiens, UniProt P35968)
T1 sequence (P35968 whole entry): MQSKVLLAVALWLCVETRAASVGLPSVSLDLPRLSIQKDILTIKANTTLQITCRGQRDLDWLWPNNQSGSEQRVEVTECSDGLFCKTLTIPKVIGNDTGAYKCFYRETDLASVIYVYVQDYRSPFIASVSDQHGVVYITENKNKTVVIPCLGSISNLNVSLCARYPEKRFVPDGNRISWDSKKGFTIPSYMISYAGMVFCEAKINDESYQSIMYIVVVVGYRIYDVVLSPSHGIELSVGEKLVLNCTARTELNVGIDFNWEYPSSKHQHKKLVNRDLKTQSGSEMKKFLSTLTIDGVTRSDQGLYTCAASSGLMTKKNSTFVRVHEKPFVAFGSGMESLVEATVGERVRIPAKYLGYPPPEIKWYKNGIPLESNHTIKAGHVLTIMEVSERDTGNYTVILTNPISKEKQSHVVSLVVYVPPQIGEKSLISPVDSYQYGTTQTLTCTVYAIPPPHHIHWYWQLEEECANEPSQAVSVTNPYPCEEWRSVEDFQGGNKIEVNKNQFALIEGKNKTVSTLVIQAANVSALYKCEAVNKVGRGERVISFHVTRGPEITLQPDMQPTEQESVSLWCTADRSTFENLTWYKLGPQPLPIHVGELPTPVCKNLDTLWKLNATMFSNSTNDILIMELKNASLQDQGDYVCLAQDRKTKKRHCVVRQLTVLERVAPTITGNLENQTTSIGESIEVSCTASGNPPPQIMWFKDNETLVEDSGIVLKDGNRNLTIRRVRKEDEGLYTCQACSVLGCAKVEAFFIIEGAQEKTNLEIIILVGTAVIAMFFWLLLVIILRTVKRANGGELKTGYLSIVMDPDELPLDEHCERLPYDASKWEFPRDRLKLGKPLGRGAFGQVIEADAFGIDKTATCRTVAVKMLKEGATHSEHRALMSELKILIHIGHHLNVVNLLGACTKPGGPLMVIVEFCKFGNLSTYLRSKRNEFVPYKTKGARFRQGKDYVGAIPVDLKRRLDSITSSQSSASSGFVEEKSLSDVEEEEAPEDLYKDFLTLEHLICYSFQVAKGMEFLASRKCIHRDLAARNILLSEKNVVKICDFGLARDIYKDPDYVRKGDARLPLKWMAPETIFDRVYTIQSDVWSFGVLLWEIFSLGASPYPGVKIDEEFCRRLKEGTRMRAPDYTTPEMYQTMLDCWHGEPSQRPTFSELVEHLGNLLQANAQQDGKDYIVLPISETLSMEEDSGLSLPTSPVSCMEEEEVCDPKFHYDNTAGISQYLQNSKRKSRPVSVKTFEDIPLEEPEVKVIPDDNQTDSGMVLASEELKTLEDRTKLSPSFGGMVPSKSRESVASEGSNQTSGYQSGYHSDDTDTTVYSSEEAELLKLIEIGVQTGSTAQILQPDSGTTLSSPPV

HepG2 = test: cells; conditions: Homo sapiens
Description: Cytotoxicity against human HepG2 cells by MTT assay

[2] = molecular target: T1, Vascular endothelial growth factor receptor 2; remark: listed apart in the source
Description: Inhibition of human VEGFR-2 by ELISA

Chain of Carbonic anhydrase 1 (P00915 whole entry): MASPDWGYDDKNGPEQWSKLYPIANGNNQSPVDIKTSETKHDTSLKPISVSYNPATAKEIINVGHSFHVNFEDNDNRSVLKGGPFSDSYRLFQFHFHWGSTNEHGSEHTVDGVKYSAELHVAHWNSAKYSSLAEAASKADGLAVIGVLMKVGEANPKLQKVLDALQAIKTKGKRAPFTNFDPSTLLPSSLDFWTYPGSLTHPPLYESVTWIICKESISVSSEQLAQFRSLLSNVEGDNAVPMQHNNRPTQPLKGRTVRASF

| Ki (Carbonic anhydrase 1) | Ki (Carbonic anhydrase 2) | IC50 [1] | IC50 (HepG2) | IC50 [2] | Structure (SMILES) |
| --- | --- | --- | --- | --- | --- |
| > 10000 nM | 112 nM |  |  |  | COc1ccc(-n2nc(NC(=O)Nc3ccccc3S(N)(=O)=O)nc2-c2ccccc2)cc1OC |
| > 10000 nM | 127 nM | 541 nM |  |  | Cc1ccc(NC(=O)Nc2nc(-c3ccccc3)n(-c3ccc(Cl)cc3)n2)cc1S(N)(=O)=O |
|  | 41.7 nM |  |  |  | NS(=O)(=O)c1ccc(CCNC(=O)Nc2nc(-c3ccccc3)n(-c3ccc(Cl)cc3)n2)cc1 |
| > 10000 nM |  |  |  |  | NS(=O)(=O)c1ccccc1NC(=O)Nc1nc(-c2ccccc2)n(-c2cccc(Cl)c2)n1 |
| > 10000 nM | 158 nM |  |  |  | COc1cccc(-n2nc(NC(=O)Nc3ccccc3S(N)(=O)=O)nc2-c2ccccc2)c1 |
| 2690 nM |  | > 1000 nM |  |  | NS(=O)(=O)c1ccc(NC(=O)Nc2nc(-c3ccccc3)n(-c3cccc(Cl)c3)n2)cc1 |
|  | 84.6 nM | 318 nM |  |  | NS(=O)(=O)c1ccc(NC(=O)Nc2nc(-c3ccccc3)n(-c3ccc(Cl)cc3)n2)cc1 |
| 8260 nM |  |  |  |  | NS(=O)(=O)c1cccc(NC(=O)Nc2nc(-c3ccccc3)n(-c3ccc(Cl)cc3)n2)c1 |
| > 10000 nM | 158 nM |  |  |  | COc1ccc(-n2nc(NC(=O)Nc3ccccc3S(N)(=O)=O)nc2-c2ccccc2)cc1 |
| > 10000 nM | 170 nM |  |  |  | Cc1ccc(NC(=O)Nc2nc(-c3ccccc3)n(-c3ccc(F)cc3)n2)cc1S(N)(=O)=O |
| > 10000 nM | 241 nM | 271 nM |  |  | NS(=O)(=O)c1ccccc1NC(=O)Nc1nc(-c2ccccc2)n(-c2ccc(Cl)cc2)n1 |
| 4900 nM | 99 nM |  |  |  | NS(=O)(=O)c1cccc(NC(=O)Nc2nc(-c3ccccc3)n(-c3ccc(F)cc3)n2)c1 |
| > 10000 nM | 384 nM |  |  |  | NS(=O)(=O)c1ccccc1NC(=O)Nc1nc(-c2ccccc2)n(-c2ccc(F)cc2)n1 |

Second part, the molecule before the results:

| Structure (SMILES) | Ki (Carbonic anhydrase 1) | Ki (Carbonic anhydrase 2) | IC50 [1] | IC50 (HepG2) | IC50 [2] |
| --- | --- | --- | --- | --- | --- |
| COc1ccc(-n2nc(NC(=O)NCCc3ccc(S(N)(=O)=O)cc3)nc2-c2ccccc2)cc1 | 82.7 nM |  |  |  |  |
| NS(=O)(=O)c1cccc(NC(=O)Nc2nc(-c3ccccc3)n(-c3cccc(Cl)c3)n2)c1 | 5820 nM | 101 nM |  |  |  |
| COc1ccc(-n2nc(NC(=O)Nc3ccc(C)c(S(N)(=O)=O)c3)nc2-c2ccccc2)cc1 |  | 72.4 nM | 717 nM |  |  |
| NS(=O)(=O)c1ccc(CCNC(=O)Nc2nc(-c3ccccc3)n(-c3ccc(F)cc3)n2)cc1 | 39.8 nM | 3.4 nM |  |  |  |
| COc1ccc(-n2nc(NC(=O)Nc3ccc(S(N)(=O)=O)cc3)nc2-c2ccccc2)cc1 | 3870 nM | 29.4 nM |  |  |  |
| NS(=O)(=O)c1ccc(NC(=O)Nc2nc(-c3ccccc3)n(-c3ccc(F)cc3)n2)cc1 | 2250 nM | 25.2 nM |  |  |  |
| COc1cccc(-n2nc(NC(=O)Nc3ccc(S(N)(=O)=O)cc3)nc2-c2ccccc2)c1 |  | 13.6 nM |  |  |  |
| COc1ccc(-n2nc(NC(=O)Nc3cccc(S(N)(=O)=O)c3)nc2-c2ccccc2)cc1OC | > 10000 nM | 285 nM |  |  |  |
| COc1cccc(-n2nc(NC(=O)NCCc3ccc(S(N)(=O)=O)cc3)nc2-c2ccccc2)c1 | 104 nM | 35.8 nM |  |  |  |
| COc1ccc(-n2nc(NC(=O)Nc3cccc(S(N)(=O)=O)c3)nc2-c2ccccc2)cc1 | 4190 nM | 56 nM | 183 nM |  |  |
| NS(=O)(=O)c1ccc(CCNC(=O)Nc2nc(-c3ccccc3)n(-c3cccc(Cl)c3)n2)cc1 | 61.8 nM | 20.1 nM |  |  |  |
| COc1ccc(-n2nc(NC(=O)Nc3ccc(S(N)(=O)=O)cc3)nc2-c2ccccc2)cc1OC |  | 16.9 nM |  |  |  |
| Cc1ccc(NC(=O)Nc2nc(-c3ccccc3)n(-c3cccc(Cl)c3)n2)cc1S(N)(=O)=O | > 10000 nM | 91.4 nM | 96.2 nM |  |  |
| COc1cccc(-n2nc(NC(=O)Nc3cccc(S(N)(=O)=O)c3)nc2-c2ccccc2)c1 | 9430 nM | 91.5 nM |  |  |  |
| COc1cccc(-n2nc(NC(=O)Nc3ccc(C)c(S(N)(=O)=O)c3)nc2-c2ccccc2)c1 | > 10000 nM | 230 nM |  |  |  |
| COc1cc(-c2nc(C(=O)Nc3ccccc3)nn2-c2ccc(F)c(Cl)c2)cc(OC)c1OC |  |  |  | 240 nM | 19.8 nM |
| COc1ccc(-n2nc(NC(=O)NCCc3ccc(S(N)(=O)=O)cc3)nc2-c2ccccc2)cc1OC | 153 nM | 16.4 nM |  |  |  |
| COc1ccc(-n2nc(NC(=O)Nc3ccc(C)c(S(N)(=O)=O)c3)nc2-c2ccccc2)cc1OC |  | 547 nM |  |  |  |
